Measured values: paper PMC3299299, “Recombinant Expression and Characterization of Human and Murine ACE2: Species-Specific Activation of the Alternative Renin-Angiotensin-System” (International Journal of Hypertension, 2012)

How the values were obtained:
Type in all cases: biochemical
RAS in whole blood = experiment: Ex vivo incubation of whole blood, RAS-Fingerprinting; conditions: whole blood instead of plasma, control and rhACE2 samples (Supplementary Figure 1)
Excerpt: These findings were in contrast to previously published reports on Ang 1–7 accumulating effects of ACE inhibitors in vivo [20, 21]. In our experimental setting, we employed heparinized blood plasma as a sample matrix for ACE2 characterization which is reflecting in vivo conditions very well. However, plasma lacks all blood cells which might carry receptors and angiotensin peptide converting enzymes being able to affect angiotensin peptide concentrations in vivo. […] As neutral endopeptidase (NEP, CD10) is known to be expressed on the cell surface of leukocytes and that it is able to convert Ang 1–10 and Ang 1–9 to Ang 1–7 in vitro [18], NEP is very likely to be responsible for Ang 1–7 accumulation also in vivo, especially in the presence of ACE inhibitors which block the formation of Ang 1–8 which is an important precursor for Ang 1–7.

[1] = test system: human RAS in blood plasma; experiment: Ex vivo incubation of renin-spiked human plasma, RAS-Fingerprinting by LC-MS/MS; conditions: human plasma + 100 pg/mL recombinant human renin, 10 μM Lisinopril present, without or with 5 μg/mL enzyme, 10 min 37°C (Fig 3b)
Method: Anticoagulated blood was collected from healthy volunteers, and plasma was separated by 10 minutes centrifugation at 3000 RCF. […] After 10 minutes of incubation at 37°C, in the presence or absence of Lisinopril (Sigma), samples were chilled on ice and immediately subjected to LC-MS/MS analysis.
Plasma samples were spiked with 100 pg/mL stable-isotope-labeled internal standards and subjected to solid-phase extraction using Sep-Pak cartridges (Waters) according to manufacturers protocol. Following elution and solvent evaporation, samples were reconstituted in 50 μL 50% acetonitrile/0.1% formic acid and subjected to LC-MS/MS analysis using a reversed-phase analytical column (Luna C18, Phenomenex) using a gradient ranging from 10% acetonitrile/0.1% formic acid to 70% acetonitrile/0.1% formic acid in 9 minutes. The eluate was analyzed in line with a QTRAP-4000 mass spectrometer (AB Sciex) operated in the MRM mode using dwell times of 25 msec at a cone voltage of 4000 volts and a source temperature of 300°C. For each peptide and corresponding internal standards, two different mass transitions were measured. Angiotensin peptide concentrations were calculated by relating endogenous peptide signals to internal standard signals provided that integrated signals achieved a signal-to-noise ratio above 10.
RAS-Fingerprints were measured by LC-MS/MS as indicated in Section 2. Samples were incubated in the absence (a) or presence (b) of 10 μM of the ACE inhibitor Lisinopril. In this figure, the diameter of the spheres reflects the concentration of the respective peptide metabolite, which is also given in pg/mL next to each individual sphere. 0 pg/mL indicates concentrations below quantification limits, which are defined by a signal-to-noise ratio below 10. Furthermore, the amino acid sequence of each angiotensin metabolite is schematically given in brackets beside the corresponding sphere. The sequence annotation is based on the decapeptide Angiotensin I (1–10) which is N- or C-terminally cleaved by the indicated proteases. […]

Ang 1–8 = experiment: In vitro kinetic assay, Ang 1–8 cleavage to Ang 1–7, HPLC quantification; conditions: ratio of k cat of the same enzyme for the two substrates
Method: (§1) Enzyme reactions were started by adding a defined amount of enzyme to substrate dilutions in MES-buffer (50 mM MES, 300 mM NaCl, 10 μM ZnCl2, 0.01% Brij-35, pH 6.5) which were previously equilibrated at 37°C. Aliquots of the reaction mixes were taken every 10 minutes and stopped by addition of 0.5 M EDTA to a final concentration of 100 mM before HPLC-based quantification of peptides.
(§2) The concentration of peptides in enzymatic reactions was quantified by detection of peaks eluted from the HPLC column using an in-line diode array detector. Chromatography was performed by running a gradient on a reversed-phase matrix (Source 5RPC, 4.6×150 mm, 5 μm) with 0.08% H3PO4 in water as mobile phase A and 40% acetonitrile in water and 0.08% H3PO4 as mobile phase B. The optical density at 280 nm was recorded inline for all eluting peaks, and peptide concentrations were calculated via calibration curves for each individual peptide.
The turnover rates for natural ACE2 substrates were determined by in vitro incubation with excess amounts of substrate followed by reversed-phase HPLC analysis. […] The resulting time courses are shown in the graphs. […] Each time point was analyzed in true triplicates and standard deviations are given in the graphs together with linear regressions of the measured values.

Ang 1–10 = experiment: In vitro kinetic assay, Ang 1–10 cleavage to Ang 1–9, HPLC quantification; conditions: […] enzyme, 65 μM Ang 1–10, MES buffer pH 6.5, 37°C, HPLC; mean of substrate degradation and product formation rates related to enzyme concentration; triplicates
Method: as §1, §2
The turnover rates for natural ACE2 substrates were determined by in vitro incubation with excess amounts of substrate followed by reversed-phase HPLC analysis. […] Each time point was analyzed in true triplicates and standard deviations are given in the graphs together with linear regressions of the measured values.

Row | Compound | Ang 1–7 concentration in whole blood in response to Lisinopril (RAS in whole blood) | Ang (1–10) concentration in plasma ([1]; 0 = below quantification limit) [pg/mL] | Ang (1–7) concentration in plasma ([1]; 0 = below quantification limit (2 pg/mL plasma)) [pg/mL] | turnover number for Ang 1–8 compared to Ang 1–10 (Ang 1–8) [fold] | k cat, Ang 1–10 ≥ Ang 1–9 (Ang 1–10) [s⁻¹]
1 | NCCCC[C@H](N[C@@H](CCc1ccccc1)C(=O)O)C(=O)N1CCC[C@H]1C(=O)O [Lisinopril] | increase of Ang 1–7 concentrations | 710 | < 2 |  | 
2 | rhACE2: extracellular domain of human ACE2 recombinantly expressed in CHO cells |  |  |  | 42 | 0.018
